Source: PubChem BioAssay (NCI)
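Cultured in 96-well plates, cells were exposed to test compound for 48 hours across five concentrations. TGI: concentration producing complete growth inhibition.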

Columns and labels:
Test in all cases: NCI anticancer screen, dose series, 48 h
[1] = system: HCT-116 colon
[2] = system: CAKI-1 renal
[3] = system: PC-3 prostate
[4] = system: CCRF-CEM leukemia
[5] = system: MDA-MB-231 breast
[6] = system: U251 CNS
[7] = system: MALME-3M melanoma
[8] = system: RPMI-8226 leukemia
[9] = system: SF-539 CNS
[10] = system: HOP-62 NSCLC
[11] = system: A498 renal

| Compound | TGI [1] | TGI [2] | TGI [3] | TGI [4] | TGI [5] | TGI [6] | TGI [7] | TGI [8] | TGI [9] | TGI [10] | TGI [11] |
| --- | --- | --- | --- | --- | --- | --- | --- | --- | --- | --- | --- |
| O=C1CCCc2cc3c(cc21)CCC3C(=O)O (centres undefined) | > 100 µM | > 100 µM | > 100 µM | > 100 µM | > 100 µM | > 100 µM | > 100 µM | > 100 µM | > 100 µM | > 100 µM | – |
| CC1OC(O[C@H]2CC[C@]3(C)[C@H]4CC=C5[C@@H]6[C@@H](C)[C@H](C)CC[C@]6(C(=O)O)CC[C@@]5(C(=O)O)[C@]4(C)CC[C@H]3C2(C)C)C(O)C(O)C1O (some centres undefined) | > 75 µM | > 75 µM | > 75 µM | > 75 µM | > 75 µM | > 75 µM | – | – | > 75 µM | > 75 µM | > 75 µM |
| CNC(=O)CCNC(=O)CCC(=O)OC | > 100 µM | > 100 µM | > 100 µM | – | > 100 µM | > 100 µM | – | – | > 100 µM | > 100 µM | > 100 µM |
| CCOC(=O)CCC(NC(=O)c1ccc(Nc2nc3cc(C(F)(F)F)ccc3nc2-c2ccccc2)cc1)C(=O)OCC (centres undefined) | > 100 µM | > 100 µM | > 100 µM | > 100 µM | > 100 µM | > 100 µM | > 100 µM | > 100 µM | > 100 µM | > 100 µM | > 100 µM |
| CC1(C)OCC(C2OC(N3O[C@H](CI)C[C@@H]3c3ccccc3)C3OC(C)(C)OC23)O1 (some centres undefined) | > 100 µM | > 100 µM | > 100 µM | > 100 µM | > 100 µM | > 100 µM | > 100 µM | > 100 µM | > 100 µM | > 100 µM | > 100 µM |
| Cc1cc2c(s1)C(=O)c1sccc1C2=O | 2.46 µM | 3.17 µM | 4.93 µM | > 100 µM | 2.89 µM | 2.55 µM | 0.311 µM | > 25.5 µM | 0.622 µM | – | 3.17 µM |
| Cc1sc2nc3n(c(=O)c2c1C)N=C(c1ccc(Cl)cc1)CS3 | > 100 µM | > 100 µM | > 100 µM | > 100 µM | > 100 µM | > 100 µM | > 100 µM | > 100 µM | > 100 µM | > 100 µM | > 100 µM |
| O=C1CCCC2=C1CC1=C(CCCC1=O)N2c1cccc2ccccc12 | – | > 100 µM | > 100 µM | > 100 µM | – | > 100 µM | – | > 100 µM | > 100 µM | – | > 100 µM |
| N#CS/C(Cl)=C(/C(Cl)=C(Cl)Cl)[N+](=O)[O-] | 75.7 µM | > 100 µM | > 100 µM | > 100 µM | > 100 µM | > 100 µM | 47.1 µM | – | > 100 µM | > 100 µM | > 100 µM |
| C/C=C(/C)C(=O)O[C@H]1C(C)=C[C@]23C(=O)[C@@H](C=C(COC(C)=O)[C@@H](O)[C@]12O)[C@H]1[C@@H](C[C@H]3C)[C@@]1(C)OC(=O)/C(C)=C\C | 9.77 µM | 6.14 µM | 4.75 µM | 5.21 µM | 8.18 µM | 7.55 µM | 3.89 µM | – | 5.88 µM | 5.25 µM | 6.07 µM |
| COC12C=CC(CC1)C1C(=O)c3c(C)c(C)n(C)c3C(=O)C12 (centres undefined) | > 100 µM | – | > 100 µM | > 100 µM | – | > 100 µM | > 100 µM | > 100 µM | > 100 µM | > 100 µM | > 100 µM |
| C=C[C@H]1CN2CCc3c([nH]c4c([C@H]5CCCN5C)c(O)ccc34)[C@@H]2C[C@@H]1C[C@H]1c2[nH]c3ccccc3c2CCN1C | 2.61 µM | 3.17 µM | 3.11 µM | 2.11 µM | 3.41 µM | 2.92 µM | 3.19 µM | – | – | 3 µM | – |
| C=C1C(=O)C23CC1C[C@H](OC(C)=O)C2C1(C)C(OC(C)=O)C[C@H](O)C(C)(C)[C@H]1C(O)[C@@H]3OC(C)=O (some centres undefined) | 16.2 µM | 30.7 µM | 26.5 µM | 8.25 µM | 18.6 µM | 28.9 µM | 19.9 µM | 16.4 µM | 7.54 µM | 33.8 µM | 28.4 µM |
| C[Si](C)(C)OC1c2[nH]c3ccccc3c2CN2C(=O)CCC12 (centres undefined) | > 100 µM | > 100 µM | > 100 µM | – | > 100 µM | > 100 µM | – | > 100 µM | > 100 µM | > 100 µM | > 100 µM |
| Cc1ccccc1N(C)S(=O)(=O)c1ccccc1[N+](=O)[O-] | > 100 µM | > 100 µM | > 100 µM | > 100 µM | > 100 µM | > 100 µM | > 100 µM | > 100 µM | > 100 µM | > 100 µM | – |
| O=C1CCC2SC1CCC2=O | > 100 µM | > 100 µM | > 100 µM | > 100 µM | > 100 µM | > 100 µM | > 100 µM | – | > 100 µM | > 100 µM | > 100 µM |
| CCCCc1c2c(nc3c1CCC/C3=C\c1ccccc1)C(=O)C(CN(C)C)CC2 (centres undefined) | 32.6 µM | – | 29.1 µM | 33 µM | 31.9 µM | 32.5 µM | 40.4 µM | 31.8 µM | 36.5 µM | 34.1 µM | 33.2 µM |
| CCOC(=O)c1c(NC(=O)Nc2ccccc2)c(C(N)=O)c2n1CCCCC2 | > 100 µM | > 100 µM | > 100 µM | > 100 µM | > 100 µM | > 100 µM | – | > 100 µM | > 100 µM | > 100 µM | > 100 µM |
| O=C(Cc1ccccc1)c1ccc2[nH]c(=O)oc2c1 | > 100 µM | > 100 µM | > 100 µM | > 100 µM | > 100 µM | 62.3 µM | – | 64.4 µM | > 100 µM | > 100 µM | > 100 µM |
| CC1=C(OC2OC(CO)C(O)C(O)C2O)C(=O)C[C@H]2C1=CC[C@@H]1[C@@]2(C)C(=O)C[C@]2(C)[C@@H]([C@@](C)(O)C(=O)CCC(C)(C)O)[C@H](O)C[C@@]12C (some centres undefined) | > 100 µM | > 100 µM | > 100 µM | > 100 µM | > 100 µM | > 100 µM | > 100 µM | – | > 100 µM | > 100 µM | > 100 µM |
